Laboratory results reported in patent publication US20110105435A1, “THERAPY OPTION FOR RECOLORATION OF HAIR VIA BISPHOSPHONATES BY PHYSIOLOGICAL REPIGMENTATION WITH AGE-RELATED AND/OR PREMATURE "GRAYED" PATIENTS” (priority 2007, published 2011).

Test system: scalp hair
Assay: Case observation: scalp hair recoloration in a myeloma patient on zoledronate monotherapy
Type: in vivo, human
Settings: Zometa 4 mg i.v. once monthly
Description: […] Multiple myeloma is a non-Hodgkin lymphoma and represents one of the most frequent malignant bone diseases.
Multiple myeloma in Stage I according to Durie and Salmon without osteolytic activity was diagnosed in the patient in November 2006. Since Stage I myeloma without clinically relevant symptoms are generally not aggressively treated with cytotostatic substances, the patient was included in an experimental monotherapy scheme applying Zometa® (active ingriedient: zoledronate), 4 mg i.v. in calcium-free infusion solution on a once monthly basis.
Zoledronate treatment is pursued for 6 months with a total of 6 therapy cycles until progression of myeloma (proliferation of plasma cell population in the bone marrow) made a more aggressive therapy approach necessary.
A suprising side-effect was observed:
The patient reported that they were black-haired during their teens and twens.
Since zoledronate was applied in monotherapy and no other relevant measures were deployed, the surprising change in hair coloration in the respective patient was caused by the bisphosphonate therapy of the underlying myeloma disease.

O=P(O)(O)C(O)(Cn1ccnc1)P(=O)(O)O [zoledronate]
change in hair coloration (repigmentation of white scalp hair) (Stage I multiple myeloma patient, completely white-haired at therapy induction, 6 cycles, monotherapy): increasingly developed black scalp hair | duration of treatment until white appearance switched to natural-looking dark-greyish shape (myeloma patient): 3-4 months
